Values of other authors, collected in PMC7904743, “WIDOCK: a reactive docking protocol for virtual screening of covalent inhibitors” (Journal of Computer-Aided Molecular Design, 2021).
Like-named read-outs stand apart in the source and are kept apart here.

Key:
OTUB2 = settings: experimental actives if % labeling higher than 50%; cited from earlier work
NUDT7 = settings: protein labeling at 200 μM; experimental actives if % labeling higher than 50%; cited from earlier work
[1] = thiol reactivity, cited from earlier work
[2] = natural log of average rate constant k
[3] = natural logarithm of average rate constant

| SMILES | OTUB2 % labeling (OTUB2) [%] | NUDT7 % labeling (NUDT7) [%] | ln(avg k) [1, 2] | ln(avg k) [1, 3] |
| --- | --- | --- | --- | --- |
| CC1(c2ccccc2)NC(=O)N(NC(=O)CCl)C1=O (stereo not drawn) [PCM-0102428, CC1(c2ccccc2)NC(=O)N(NC(=O)CCl)C1=O] | 0 | 0 | -17.653 | -17.653 |
| CC(C)c1cccc(NC(=O)CCl)c1 [PCM-0102429, CC(C)c1cccc(NC(=O)CCl)c1] | 23 | 10 | -15.994 | -15.994 |
| O=C(CCl)NNC(=O)c1ccc(F)cc1 [PCM-0102430, O=C(CCl)NNC(=O)c1ccc(F)cc1] | 31 | 0 | -17.459 | -17.459 |
| Cc1cc(CNC(=O)CCl)cc(C)c1O [PCM-0102431, Cc1cc(CNC(=O)CCl)cc(C)c1O] | 64 | 0 | -16.592 | -16.592 |
| CCC1CN(C(=O)CCl)CCO1 (stereo not drawn) [PCM-0102436, CCC1CN(C(=O)CCl)CCO1] | 0 | 0 | -15.658 | -15.658 |
| CC(c1ccc(F)c(F)c1)N(C)C(=O)CCl (stereo not drawn) [PCM-0102438, CC(c1ccc(F)c(F)c1)N(C)C(=O)CCl] | 8 | 14 | -16.135 | -16.135 |
| N#Cc1c(NC(=O)CCl)sc2c1CCC2 [PCM-0102452, N#Cc1c(NC(=O)CCl)sc2c1CCC2] | 7 | 0 | -16.077 | -16.077 |
| O=C(CCl)NCC(F)(F)F [PCM-0102456, O=C(CCl)NCC(F)(F)F] | 0 | 0 | -18.378 | -18.378 |
| O=C(CCl)Nc1nc2c(s1)CCC2 [PCM-0102457, O=C(CCl)Nc1nc2c(s1)CCC2] | 0 | 37 | -15.357 | -15.357 |
| N#CC1(NC(=O)CCl)CCCCCC1 [PCM-0102465, N#CC1(NC(=O)CCl)CCCCCC1] | 0 | 0 | -16.080 | -16.080 |
| O=C(CCl)N1CCN(S(=O)(=O)c2ccccc2)CC1 [PCM-0102468, O=C(CCl)N1CCN(S(=O)(=O)c2ccccc2)CC1] | 8 | 0 | -15.364 | -15.364 |
| O=C(CCl)N=c1sccn1Cc1ccccc1 [PCM-0102469, O=C(CCl)N=c1sccn1Cc1ccccc1] | 11 | 0 | -15.583 | -15.583 |
| N#CCN(C(=O)CCl)c1ccccc1 [PCM-0102471, N#CCN(C(=O)CCl)c1ccccc1] | 19 | 0 | -15.586 | -15.586 |
| O=C(CCl)N1CCNCC1 [PCM-0102476, O=C(CCl)N1CCNCC1] | 0 | 0 | -17.059 | -17.059 |
| CC(c1ccccc1)N(C)C(=O)CCl (stereo not drawn) [PCM-0102478, CC(c1ccccc1)N(C)C(=O)CCl] | 0 | 10 | -16.049 | -16.049 |
| O=C(CCl)N1CCC(Cc2ccccc2)CC1 [PCM-0102492, O=C(CCl)N1CCC(Cc2ccccc2)CC1] | 18 | 18 | -16.081 | -16.081 |
| O=C(CCl)NC(=O)NCc1ccco1 [PCM-0102494, O=C(CCl)NC(=O)NCc1ccco1] | 0 | 0 | -16.128 | -16.128 |
| NC(=O)C1CCCN(C(=O)CCl)C1 (stereo not drawn) [PCM-0102495, NC(=O)C1CCCN(C(=O)CCl)C1] | 0 | 0 | -15.454 | -15.454 |

| SMILES | OTUB2 % labeling (OTUB2) [%] | NUDT7 % labeling (NUDT7) [%] | ln(avg k) [1, 2] | ln(avg k) [1, 3] |
| --- | --- | --- | --- | --- |
| O=C(CCl)NCc1cccnc1 [PCM-0102497, O=C(CCl)NCc1cccnc1] | 5 | 0 | -17.127 | -17.127 |
| CC12CCC(CC1=NNC(=O)CCl)C2(C)C (stereo not drawn) [PCM-0102498, CC12CCC(CC1=NNC(=O)CCl)C2(C)C] | 0 | 0 | -15.811 | -15.811 |
| Cc1cc(NC(=O)CCl)no1 [PCM-0102500, Cc1cc(NC(=O)CCl)no1] | 35 | 0 | -15.955 | -15.955 |
| Cc1nn(-c2ccccc2)c(C)c1NC(=O)CCl [PCM-0102501, Cc1nn(-c2ccccc2)c(C)c1NC(=O)CCl] | 9 | 9 | -16.489 | -16.489 |
| CC(C)NC(=O)NC(=O)CCl [PCM-0102504, CC(C)NC(=O)NC(=O)CCl] | 0 | 0 | -16.238 | -16.238 |
| O=C(CCl)Nc1ccc(Br)cc1Cl [PCM-0102505, O=C(CCl)Nc1ccc(Br)cc1Cl] | 7 | 59 | -16.521 | -16.521 |
| O=C(CCl)Nc1ccccc1I [PCM-0102509, O=C(CCl)Nc1ccccc1I] | 0 | 0 | -16.748 | -16.748 |
| O=C(CCl)NNC(=O)c1ccccc1F [PCM-0102510, O=C(CCl)NNC(=O)c1ccccc1F] | 52 | 0 | -17.412 | -17.412 |
| Cc1ccc([N+](=O)[O-])c(NC(=O)CCl)c1C [PCM-0102511, Cc1ccc([N+](=O)[O-])c(NC(=O)CCl)c1C] | 7 | 15 | -16.700 | -16.700 |
| O=C(CCl)N1CCCC1c1ccc2c(c1)OCCCO2 (stereo not drawn) [PCM-0102512, O=C(CCl)N1CCCC1c1ccc2c(c1)OCCCO2] | 0 | 88 | -15.497 | -15.497 |
| O=C(CCl)N1CCCCC1 [PCM-0102514, O=C(CCl)N1CCCCC1] | 0 | 0 | -16.289 | -16.289 |
| CC(C)N(CC(F)(F)F)C(=O)CCl [PCM-0102516, CC(C)N(CC(F)(F)F)C(=O)CCl] | 0 | 0 | -17.383 | -17.383 |
| CNC(=O)C1CCCN1C(=O)CCl (stereo not drawn) [PCM-0102518, CNC(=O)C1CCCN1C(=O)CCl] | 0 | 0 | -16.106 | -16.106 |
| CC(C)c1ccc(NC(=O)CCl)cc1 [PCM-0102532, CC(C)c1ccc(NC(=O)CCl)cc1] | 33 | 18 | -15.987 | -15.987 |
| CNC(=O)NC(=O)CCl [PCM-0102534, CNC(=O)NC(=O)CCl] | 0 | 0 | -16.522 | -16.522 |
| CC(=O)N1CCN(C(=O)CCl)CC1 [PCM-0102535, CC(=O)N1CCN(C(=O)CCl)CC1] | 0 | 6 | -15.085 | -15.085 |
| CC(C)(C)c1cc(NC(=O)CCl)n(-c2ccccc2)n1 [PCM-0102536, CC(C)(C)c1cc(NC(=O)CCl)n(-c2ccccc2)n1] | 14 | 0 | -15.955 | -15.955 |
| O=C(CCl)NCc1ccccc1 [PCM-0102538, O=C(CCl)NCc1ccccc1] | 28 | 0 | -16.796 | -16.796 |
